{"source": "patent US6027875A", "about": "“Receptor infection assay” (The Salk Institute for Biological Studies, priority 1991, dated 2000)", "key": {"[1]": {"biological_target": "T1, human glucocorticoid receptor (GR) (Homo sapiens, UniProt P04150)", "T1 sequence (P04150 1-777)": "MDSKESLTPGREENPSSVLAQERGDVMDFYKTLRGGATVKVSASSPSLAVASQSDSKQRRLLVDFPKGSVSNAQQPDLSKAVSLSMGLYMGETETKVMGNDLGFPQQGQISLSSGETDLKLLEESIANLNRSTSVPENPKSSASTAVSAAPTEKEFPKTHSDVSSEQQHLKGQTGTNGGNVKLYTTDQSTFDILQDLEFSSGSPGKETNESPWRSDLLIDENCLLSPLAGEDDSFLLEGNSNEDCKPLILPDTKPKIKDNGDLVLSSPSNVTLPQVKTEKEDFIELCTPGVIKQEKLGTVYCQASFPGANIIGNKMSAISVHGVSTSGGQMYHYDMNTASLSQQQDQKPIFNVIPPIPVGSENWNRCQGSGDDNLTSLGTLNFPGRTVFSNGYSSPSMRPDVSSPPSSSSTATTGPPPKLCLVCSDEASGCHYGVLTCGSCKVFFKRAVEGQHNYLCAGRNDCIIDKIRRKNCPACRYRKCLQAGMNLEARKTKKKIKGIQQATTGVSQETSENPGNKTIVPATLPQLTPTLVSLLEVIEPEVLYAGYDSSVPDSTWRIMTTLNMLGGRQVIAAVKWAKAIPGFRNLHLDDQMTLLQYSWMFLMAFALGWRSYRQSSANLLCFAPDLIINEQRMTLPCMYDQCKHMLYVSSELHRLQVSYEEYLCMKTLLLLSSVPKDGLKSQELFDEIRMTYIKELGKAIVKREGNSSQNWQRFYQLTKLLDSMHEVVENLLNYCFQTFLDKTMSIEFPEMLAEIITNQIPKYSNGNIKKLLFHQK", "test": "Functional assay with recombinant receptor (hGR4) and reporter (MLUC3) viruses in 293 cells, luciferase activity", "conditions": "22 hours after infection; for Luciferase response to dex mimicked by other adrenocorticosteroids: hGR4 + MLUC3 coinfected 293 cells", "text": "A reporter virus (MLUC3; also variously referred to as Ad3MLUC, MpCV3MTV-LUC-Ad and ADMLUC) was constructed containing the mouse mammary tumor virus LTR linked to the firefly luciferase cDNA with an SV40 polyadenylation signal (Hollenberg, et al., Cell 55, 899 (1988)) similar to the receptor virus hGR4 above. The two viruses, hGR4 and MLUC3, were coinfected into 293 cells growing in DMEM suplemented with 10% charcoal adsorbed fetal calf serum ±10^-7 M dexamethasone (dex), and cellular extracts were prepared by Triton X-100™ brand non-ionic surfactant lysis at 22 hours after infection. (Williams, et al., Anal. Biochem 176, 28 (1989)) These were tested for luciferase activity by incubating with ATP and luciferin in a suitable buffer system. (de Wet, et al., Mol. Cell Biol. 7, 725 (1987)). Light liberated in this reaction was measured using a luminometer."}, "[2]": {"biological_target": "T1, human glucocorticoid receptor (GR)", "test": "Luciferase-based coinfection assay with unpurified virus stocks in 293 or CV-1 cells", "parameters": "expressed in transfected cells; host or cells: 293 cells (human embryonic kidney) infected with recombinant adenovirus hGR4 and reporter virus MLUC3; A3: 293 or CV-1 cells", "conditions": "293 or CV-1 cells infected with both stocks, ten PFU/cell; lysates at twenty-two hours after infection", "text": "With the unpurified virus stocks, their ability to measure hormone-responsiveness was accomplished using various adrenocorticosteroid, in the luciferase based assay. Assuming that the titer of the viral stocks was approximately 10^8 PFU/ML, either 293 cells or CV-1 cells that have low endogenous GR levels were infected with both stocks at a multiplicity of infection equal to ten PFU/cell. At twenty-two hours after infection (empirically determined to be the time when maximal GR synthesis occurs by Western blot measurement of protein), cell lysates were prepared and tested for luciferase activity.\nWithin the concentration range of 10^-10 and 10^-5 M of corticosteroids, dose response curves were generated that appeared by all qualitative criteria to resemble the binding activities of those glucocorticoids for the receptor protein."}, "[3]": {"biological_target": "T1, human glucocorticoid receptor (GR)", "test": "Detection of glucocorticoids: cells infected with hGR4 and MLUC3, luciferase activity", "format": "cell-based", "parameters": "expressed in transfected cells; host or cells: 293 cells (human embryonic kidney) infected with recombinant adenovirus hGR4 and reporter virus MLUC3; A3: 293 or CV-1 cells", "conditions": "10^-8 M cortisol, 18 hours p.i., read-out: Share of the maximal transcriptional response", "protocol": "Cells were infected with hGR4 and MLUC3 recombinant adenoviruses in the presence of varying concentrations of cortisol from 10^-11 M to 10^-5 M in 3-fold dilution steps. At 18 hours p.i., lysates were prepared and luciferase activity was measured. Approximately 10% of the maximal transcriptional response was detected at 10^-8 M cortisol. Since standard assay volumes are 200 μl per well in a 96 sample microliter dish, this represents about 2×10^-12 mole or about 0.6 ng of cortisol."}, "[4]": {"biological_target": "T1, human glucocorticoid receptor (GR)", "conditions": "293 cell lysate, 20 µL/200 µL assayed", "protocol": "The coinfection assay was carried out in the following manner. Twelve well dishes were seeded with 293 cells at a density of 1.2×10^5 cells per well and grown in Dulbecco's modified Eagle's medium (DME) supplemented with 10% fetal calf serum. Assuming that the hGR4, MLUC3, and dl 309 virus stocks were 10^8 PFU/ml, the next day cells were infected with various combinations of these stocks in triplicate at a multiplicity of infection corresponding to 50. Dexamethasone dissolved in 50% ethanol or the control vehicle alone were each diluted into DME supplemented with 10% charcoal-adsorbed fetal calf serum at a final concentration of 0.1 μM. These mixtures were added to cells adsorbed with virus for thirty minutes. Cells were harvested at 18, 22 and 89 hours after infection by scraping them from the plate and washing the cell pellets in phosphate-buffered saline, and resuspending them in 100 microliters of 100 mM K2 HPO4 (pH 7.8), 1 mM dithiothreitol). Cell lysates were prepared by three cycles of sequential freezing and thawing in a dry ice/ethanol and 37° C. baths. Cell debris was pelleted by centrifugation in a microcentrifuge for 5 minutes at 4° C. […] Luciferase enzyme activity was assayed by automatic injection of 1 mM d-luciferin (Analytical Luminescence Laboratories) as described in de Wet et al. Mol. Cell. Biol. 7, 725 (1987) using a Berthold luminometer.\nThe orientation is reversed relative to the major late promoter with the RSV long term repeat promoter driving the expression of the human glucocorticoid receptor DNA terminating with SV40 polyadenylation sequence. This orientation removes the tripartite leader from functioning in its usual manner. A separate vector for the receptor DNA is constructed similarly. The two vectors are separately used to infect 293 cells. First, 293 cells are infected with the vector bearing the human glucocorticoid receptor DNA. Successful infection can be tested by picking plaques and doing a Western analysis with human glucocorticoid receptor antibodies or one can measure the ligand binding properties of the extracts or one can do a restriction map analysis to assure proper infection with the human glucocoid receptor adenovirus DNA. Successfully infected cells are then infected with the reporter virus vector. Alternatively, both vectors could be mixed on, for example, 293 cells. Where host cells not bearing a complement of the adenovirus genome are used, one may coinfect with wild-type virus in order to supply the missing complement. […] The material to be tested may either be added in at the beginning or at such twenty-two hour period. The cells are then tested for measurement of the reporter activity. In the case of the exemplified luciferase gene, that measurement takes the form of quantitating light emission from luciferin oxidized by any luciferase present."}}, "note": "Read-outs that look alike come from different tables or passages of the source.", "data": [{"molecule": "estrogen", "values": [{"measurement": "Luciferase response to dex mimicked by other adrenocorticosteroids", "setting": "[1]", "value": "mimicked"}, {"measurement": "Induction of luciferase activity (inducer in this system)", "setting": "[2]", "value": "ineffective inducers"}]}, {"molecule": "C[C@]12CCC(=O)C=C1CC[C@@H]1[C@@H]2[C@@H](O)C[C@]2(C=O)[C@@H](C(=O)CO)CC[C@@H]12", "note": "[aldosterone]", "values": [{"measurement": "Luciferase response to dex mimicked by other adrenocorticosteroids", "setting": "[1]", "value": "mimicked"}]}, {"molecule": "C[C@]12CCC(=O)C=C1CC[C@@H]1[C@@H]2[C@@H](O)C[C@@]2(C)[C@H]1CC[C@]2(O)C(=O)CO", "note": "[cortisol]", "values": [{"measurement": "Luciferase response to dex mimicked by other adrenocorticosteroids", "setting": "[1]", "value": "mimicked"}, {"measurement": "activation at 0.01 µM", "setting": "[3]", "value": "~10", "unit": "%"}]}, {"molecule": "C[C@@H]1C[C@H]2[C@@H]3CCC4=CC(=O)C=C[C@]4(C)[C@@]3(F)[C@@H](O)C[C@]2(C)[C@@]1(O)C(=O)CO", "note": "[DEX, Dexamethasone]", "values": [{"measurement": "Response of cell lysate (luciferase activity), with CV", "setting": "[4]; co-infection HGR + DL309, 18 HRS after co-infection, DEX 3 × 10^-9", "value": "35 (28%)"}, {"measurement": "Response of cell lysate (luciferase activity), with CV", "setting": "[4]; co-infection HGR + DL309, 18 HRS after co-infection, DEX 10^-7 M", "value": 33}, {"measurement": "Response of cell lysate (luciferase activity), with CV", "setting": "[4]; co-infection HGR + DL309, 22 HRS after co-infection, DEX 3 × 10^-9", "value": "40 (19%)"}, {"measurement": "Response of cell lysate (luciferase activity), with CV", "setting": "[4]; co-infection HGR + DL309, 22 HRS after co-infection, DEX 10^-7 M", "value": "42 (38%)"}, {"measurement": "Response of cell lysate (luciferase activity), with CV", "setting": "[4]; co-infection HGR + DL309, 89 HR after co-infection, DEX 3 × 10^-9", "value": "22 (14%)"}, {"measurement": "Response of cell lysate (luciferase activity), with CV", "setting": "[4]; co-infection HGR + DL309, 89 HR after co-infection, DEX 10^-7 M", "value": "27 (4%)"}, {"measurement": "Response of cell lysate (luciferase activity), with CV", "setting": "[4]; co-infection HGR + MTV-LUC, 18 HRS after co-infection, DEX 3 × 10^-9", "value": 30015}, {"measurement": "Response of cell lysate (luciferase activity), with CV", "setting": "[4]; co-infection HGR + MTV-LUC, 18 HRS after co-infection, DEX 10^-7 M", "value": 72864}, {"measurement": "Response of cell lysate (luciferase activity), with CV", "setting": "[4]; co-infection HGR + MTV-LUC, 22 HRS after co-infection, DEX 3 × 10^-9", "value": "48858 (14%)"}, {"measurement": "Response of cell lysate (luciferase activity), with CV", "setting": "[4]; co-infection HGR + MTV-LUC, 22 HRS after co-infection, DEX 10^-7 M", "value": "90718 (18%)"}, {"measurement": "Response of cell lysate (luciferase activity), with CV", "setting": "[4]; co-infection HGR + MTV-LUC, 89 HR after co-infection, DEX 3 × 10^-9", "value": "1246 (68%)"}, {"measurement": "Response of cell lysate (luciferase activity), with CV", "setting": "[4]; co-infection HGR + MTV-LUC, 89 HR after co-infection, DEX 10^-7 M", "value": "1065 (7%)"}, {"measurement": "Response of cell lysate (luciferase activity), with CV", "setting": "[4]; co-infection MTV-LUC + DL309, 18 HRS after co-infection, DEX 3 × 10^-9", "value": "3643 (20%)"}, {"measurement": "Response of cell lysate (luciferase activity), with CV", "setting": "[4]; co-infection MTV-LUC + DL309, 18 HRS after co-infection, DEX 10^-7 M", "value": 19130}, {"measurement": "Response of cell lysate (luciferase activity), with CV", "setting": "[4]; co-infection MTV-LUC + DL309, 22 HRS after co-infection, DEX 3 × 10^-9", "value": "5095 (12%)"}, {"measurement": "Response of cell lysate (luciferase activity), with CV", "setting": "[4]; co-infection MTV-LUC + DL309, 22 HRS after co-infection, DEX 10^-7 M", "value": "24215 (4%)"}, {"measurement": "Response of cell lysate (luciferase activity), with CV", "setting": "[4]; co-infection MTV-LUC + DL309, 89 HR after co-infection, DEX 3 × 10^-9", "value": "53 (48%)"}, {"measurement": "Response of cell lysate (luciferase activity), with CV", "setting": "[4]; co-infection MTV-LUC + DL309, 89 HR after co-infection, DEX 10^-7 M", "value": "151 (23%)"}, {"measurement": "Response of cell lysate (luciferase activity), with CV", "setting": "[4]; infection DL309 only, 18 HRS after co-infection, DEX 3 × 10^-9", "value": "28 (5%)"}, {"measurement": "Response of cell lysate (luciferase activity), with CV", "setting": "[4]; infection DL309 only, 18 HRS after co-infection, DEX 10^-7 M", "value": 32}, {"measurement": "Response of cell lysate (luciferase activity), with CV", "setting": "[4]; infection DL309 only, 22 HRS after co-infection, DEX 3 × 10^-9", "value": "42 (22%)"}, {"measurement": "Response of cell lysate (luciferase activity), with CV", "setting": "[4]; infection DL309 only, 22 HRS after co-infection, DEX 10^-7 M", "value": "43 (11%)"}, {"measurement": "Response of cell lysate (luciferase activity), with CV", "setting": "[4]; infection DL309 only, 89 HR after co-infection, DEX 3 × 10^-9", "value": "22 (24%)"}, {"measurement": "Response of cell lysate (luciferase activity), with CV", "setting": "[4]; infection DL309 only, 89 HR after co-infection, DEX 10^-7 M", "value": "23 (7%)"}, {"measurement": "Additional enhancement of the luciferase response by coinfection with hGR4", "setting": "[1]; MLUC3 + hGR4 (not with parental dl 309), 10^-7 M dex, 293 cells, 0.1 µM", "value": 5, "unit": "fold"}, {"measurement": "Stimulation of luciferase activity", "setting": "[1]; MLUC3 alone, 10^-7 M dex, 293 cells, 0.1 µM", "value": 10, "unit": "fold"}]}, {"molecule": "CC1=C(/C=C/C(C)=C/C=C/C(C)=C/C(=O)O)C(C)(C)CCC1", "note": "[retinoic acid]", "values": [{"measurement": "Induction of luciferase activity (inducer in this system)", "setting": "[2]", "value": "ineffective inducers"}]}, {"molecule": "C[C@]12C[C@H](O)[C@H]3[C@@H](CCC4=CC(=O)CC[C@@]43C)[C@@H]1CC[C@@H]2C(=O)CO", "note": "[corticosterone]", "values": [{"measurement": "Luciferase response to dex mimicked by other adrenocorticosteroids", "setting": "[1]", "value": "mimicked"}]}]}
